Results reported in ChEMBL document CHEMBL5518181, “Studies of antibacterial activity (in vitro and in vivo) and mode of action for des-acyl tridecaptins (DATs)” (Eur J Med Chem, 2024).
In brackets after ≈: the same amount, converted by molar mass.

Experiments:
Escherichia coli [1] = assay: Antibacterial activity against wild-type Escherichia coli ATCC 25922 assessed as inhibition of bacterial growth incubated for 18 hrs; type: functional; settings: read-out: MIC100
Klebsiella pneumoniae [2] = assay: Antibacterial activity against wild-type Klebsiella pneumoniae ATCC 13883 assessed as inhibition of bacterial growth incubated for 18 hrs; type: functional; settings: read-out: MIC100
[3] = Hemolytic activity in human red blood cells at 400 ug/ml incubated for 45 mins by spectrophotometric analysis relative to control; type: toxicity, cell-based, Erythrocyte; settings: red blood cells (erythrocytes), at 400 µg/mL, read-out: Activity
[4] = Cytotoxicity against human HepG2 cells incubated for 40 hrs by celltiter-glo luminescent cell viability assay; type: toxicity, cell-based
Escherichia coli [5] = assay: Antibacterial activity against wild-type Escherichia coli ATCC 25922 assessed as inhibition of bacterial growth incubated for 18 hrs in presence of 50% heat inactivated human serum; type: functional; settings: read-out: MIC100
Escherichia coli [6] = assay: Antibacterial activity against Escherichia coli ATCC 25922 harboring hldE knock-out assessed as inhibition of bacterial growth incubated for 18 hrs; type: functional; settings: read-out: MIC100
Escherichia coli [7] = assay: Antibacterial activity against Escherichia coli ATCC 25922 harboring tolC knock-out assessed as inhibition of bacterial growth incubated for 18 hrs; type: functional; settings: read-out: MIC100
Klebsiella pneumoniae [8] = assay: Antibacterial activity against wild-type Klebsiella pneumoniae ATCC 13883 assessed as inhibition of bacterial growth incubated for 18 hrs in presence of 50% heat inactivated human serum; type: functional; settings: read-out: MIC100
Acinetobacter baumannii = assay: Antibacterial activity against wild-type Acinetobacter baumannii ATCC 19606 assessed as inhibition of bacterial growth incubated for 20 hrs; type: functional; settings: read-out: MIC100
Pseudomonas aeruginosa = assay: Antibacterial activity against wild-type Pseudomonas aeruginosa PAO1 assessed as inhibition of bacterial growth incubated for 24 hrs; type: functional; settings: read-out: MIC100
Staphylococcus aureus = assay: Antibacterial activity against […] assessed as inhibition of bacterial growth incubated for 18 hrs; type: functional; settings: ATCC 29213, read-out: MIC100
[9] = Hydrophobicity of compound assessed as %MeCN at peak elution by RP-HPLC analysis; type: physicochemical
[10] = Binding affinity to gram negative bacterial lipid II assessed as dissociation constant by ITC analysis; design: species or system Bacteria

Row | Kd [10] [nM] | SMILES | MIC (Escherichia coli [1]) [µg/mL] | MIC (Klebsiella pneumoniae [2]) [µg/mL] | hemolysis at 0.75 h, 400 ug/ml [3] [%] | IC50 at 40 h [4] [µg/mL] | MIC (Escherichia coli [5]) [µg/mL] | MIC (Escherichia coli [6]) [µg/mL] | MIC (Escherichia coli [7]) [µg/mL] | MIC (Klebsiella pneumoniae [8]) [µg/mL] | MIC (Acinetobacter baumannii) [µg/mL] | MIC (Pseudomonas aeruginosa) [µg/mL] | MIC (Staphylococcus aureus) [µg/mL] | MeCN percentage at peak elution [9] [%]
1 |  | CC[C@H](C)[C@@H](NC(=O)[C@@H](NC(=O)[C@H](CCC(=O)O)NC(=O)[C@H](Cc1ccccc1)NC(=O)[C@@H](CCN)NC(=O)[C@H](CCN)NC(=O)[C@H](CO)NC(=O)[C@@H](Cc1c[nH]c2ccccc12)NC(=O)[C@@H](CO)NC(=O)CNC(=O)[C@@H](CCN)NC(=O)[C@H](NC(=O)[C@@H](C)N)C(C)C)C(C)C)C(=O)N[C@@H](C)C(=O)O | 4 (≈ 2.73 µM) | 2 (≈ 1.36 µM) | 2.3 | 98 (≈ 66.9 µM) | 4 | 2 (≈ 1.36 µM) | 4 (≈ 2.73 µM) | 4 | > 64 | 32 (≈ 21.8 µM) | > 64 | 39.6
2 |  | CC[C@H](C)[C@@H](NC(=O)[C@H](CC1CCCCC1)NC(=O)[C@H](CCC(=O)O)NC(=O)[C@H](Cc1ccccc1)NC(=O)[C@@H](CCN)NC(=O)[C@H](CCN)NC(=O)[C@H](CO)NC(=O)[C@@H](Cc1c[nH]c2ccccc12)NC(=O)[C@@H](CO)NC(=O)CNC(=O)[C@@H](CCN)NC(=O)[C@H](N)C(C)C)C(=O)N[C@@H](C)C(=O)O | 8 (≈ 5.52 µM) | 8 (≈ 5.52 µM) | 59.1 | 46 (≈ 31.8 µM) | 16 | 2 (≈ 1.38 µM) | < 0.125 | 4 | 64 (≈ 44.2 µM) | > 64 | > 64 | 43.9
3 |  | CC[C@@H](C)[C@@H](NC(=O)[C@@H](NC(=O)[C@H](CCC(=O)O)NC(=O)[C@H](Cc1ccccc1)NC(=O)[C@@H](CCN)NC(=O)[C@H](CCN)NC(=O)[C@H](CO)NC(=O)[C@@H](Cc1c[nH]c2ccccc12)NC(=O)[C@@H](CO)NC(=O)CNC(=O)[C@@H](CCN)NC(=O)[C@H](N)C(C)C)C(C)C)C(=O)N[C@@H](C)C(=O)O | 64 (≈ 45.9 µM) | 64 (≈ 45.9 µM) | 5.5 | 91 (≈ 65.3 µM) | 8 | 8 (≈ 5.74 µM) | 4 (≈ 2.87 µM) | 8 | 64 (≈ 45.9 µM) | > 64 | > 64 | 39.5
4 |  | CC[C@H](C)[C@@H](NC(=O)[C@@H](NC(=O)[C@H](CCC(=O)O)NC(=O)[C@H](Cc1ccccc1)NC(=O)[C@@H](CCN)NC(=O)[C@H](CCN)NC(=O)[C@H](CO)NC(=O)[C@@H](Cc1c[nH]c2ccccc12)NC(=O)[C@@H](CO)NC(=O)[C@H](CC(=O)O)NC(=O)[C@@H](CCN)NC(=O)[C@H](N)C(C)C)C(C)C)C(=O)N[C@@H](C)C(=O)O | > 64 | > 64 | 0 | 13 (≈ 8.95 µM) | 64 |  |  | > 64 | > 64 | 64 (≈ 44.1 µM) | > 64 | 37.8
5 | 770 | CC[C@H](C)[C@@H](NC(=O)[C@@H](NC(=O)[C@H](CCC(=O)O)NC(=O)[C@H](Cc1ccccc1)NC(=O)[C@@H](CCN)NC(=O)[C@H](CCN)NC(=O)[C@H](CO)NC(=O)[C@@H](Cc1c[nH]c2ccccc12)NC(=O)[C@@H](CO)NC(=O)CNC(=O)[C@@H](CCN)NC(=O)[C@H](NC(=O)[C@H](C)N)C(C)C)C(C)C)C(=O)N[C@@H](C)C(N)=O | 8 (≈ 5.46 µM) | 32 (≈ 21.8 µM) | 1.5 | > 170 |  |  |  |  |  |  |  | 
6 | 330 | CC(C)[C@H](NC(=O)[C@H](CCC(=O)O)NC(=O)[C@H](Cc1ccccc1)NC(=O)[C@@H](CCN)NC(=O)[C@H](CCN)NC(=O)[C@H](CO)NC(=O)[C@@H](Cc1c[nH]c2ccccc12)NC(=O)[C@@H](CO)NC(=O)CNC(=O)[C@@H](CCN)NC(=O)[C@H](N)C(C)C)C(=O)N[C@@H](C(=O)N[C@@H](C)C(N)=O)C(C)(C)C | 16 (≈ 11.5 µM) | 2 (≈ 1.44 µM) | 1.6 | 127 (≈ 91.1 µM) |  |  |  |  |  |  |  | 
7 |  | CC[C@H](C)[C@@H](NC(=O)[C@@H](NC(=O)[C@H](CCC(=O)O)NC(=O)[C@H](Cc1ccccc1)NC(=O)[C@@H](C)NC(=O)[C@H](CCN)NC(=O)[C@H](CO)NC(=O)[C@@H](Cc1c[nH]c2ccccc12)NC(=O)[C@@H](CO)NC(=O)CNC(=O)[C@@H](CCN)NC(=O)[C@H](NC(=O)[C@H](C)N)C(C)C)C(C)C)C(=O)N[C@@H](C)C(=O)O | 16 (≈ 11.1 µM) | 16 (≈ 11.1 µM) | 4.5 | 35 (≈ 24.4 µM) | 8 | 8 (≈ 5.57 µM) | 8 (≈ 5.57 µM) | 16 | 64 (≈ 44.5 µM) | > 64 | > 64 | 45.9
8 | 1400 | CC[C@H](C)[C@@H](NC(=O)[C@@H](NC(=O)[C@H](CCC(N)=O)NC(=O)[C@H](Cc1ccccc1)NC(=O)[C@@H](CCN)NC(=O)[C@H](CCN)NC(=O)[C@H](CO)NC(=O)[C@@H](Cc1c[nH]c2ccccc12)NC(=O)[C@@H](CO)NC(=O)CNC(=O)[C@@H](CCN)NC(=O)[C@H](N)C(C)C)C(C)C)C(=O)N[C@@H](C)C(=O)O | ≥ 32 | > 64 | 2.1 | 41 (≈ 29.4 µM) |  |  |  |  |  |  |  | 
9 |  | CC[C@H](C)[C@@H](NC(=O)[C@@H](NC(=O)[C@H](C)NC(=O)[C@H](Cc1ccccc1)NC(=O)[C@@H](CCN)NC(=O)[C@H](CCN)NC(=O)[C@H](CO)NC(=O)[C@@H](Cc1c[nH]c2ccccc12)NC(=O)[C@@H](CO)NC(=O)CNC(=O)[C@@H](CCN)NC(=O)[C@H](NC(=O)[C@H](C)N)C(C)C)C(C)C)C(=O)N[C@@H](C)C(=O)O | 8 (≈ 5.68 µM) | 16 (≈ 11.4 µM) | 0.3 | 67 (≈ 47.6 µM) | 4 | 2 (≈ 1.42 µM) | 8 (≈ 5.68 µM) | 32 | > 64 | 64 (≈ 45.5 µM) | > 64 | 40.1
10 | 1220 | CC[C@H](C)[C@@H](NC(=O)[C@@H](NC(=O)[C@H](C)NC(=O)[C@H](Cc1ccccc1)NC(=O)[C@@H](CCN)NC(=O)[C@H](CCN)NC(=O)[C@H](CO)NC(=O)[C@@H](Cc1c[nH]c2ccccc12)NC(=O)[C@@H](CO)NC(=O)CNC(=O)[C@@H](CCN)NC(=O)[C@H](N)C(C)C)C(C)C)C(=O)N[C@@H](C)C(=O)O | > 64 | > 64 | 0 | > 170 |  |  |  |  |  |  |  | 
11 |  | CC[C@H](C)[C@@H](NC(=O)[C@@H](NC(=O)[C@H](CCC(=O)O)NC(=O)[C@H](Cc1ccc(-c2ccccc2)cc1)NC(=O)[C@@H](CCN)NC(=O)[C@H](CCN)NC(=O)[C@H](CO)NC(=O)[C@@H](Cc1c[nH]c2ccccc12)NC(=O)[C@@H](CO)NC(=O)CNC(=O)[C@@H](CCN)NC(=O)[C@H](N)C(C)C)C(C)C)C(=O)N[C@@H](C)C(=O)O | 8 (≈ 5.44 µM) | 4 (≈ 2.72 µM) | 24.5 | 23 (≈ 15.6 µM) |  | 2 (≈ 1.36 µM) | < 0.125 | 4 | > 64 | 64 (≈ 43.5 µM) | > 64 | 
12 |  | CC(C)[C@H](NC(=O)[C@H](CCC(=O)O)NC(=O)[C@H](Cc1ccccc1)NC(=O)[C@@H](CCN)NC(=O)[C@H](CCN)NC(=O)[C@H](CO)NC(=O)[C@@H](Cc1c[nH]c2ccccc12)NC(=O)[C@@H](CO)NC(=O)CNC(=O)[C@@H](CCN)NC(=O)[C@H](NC(=O)[C@H](C)N)C(C)C)C(=O)N[C@H](C)C(=O)N[C@@H](C)C(=O)O | 64 (≈ 45 µM) | 32 (≈ 22.5 µM) | 5 | 47 (≈ 33 µM) | 32 | 8 (≈ 5.62 µM) | 32 (≈ 22.5 µM) | 16 | > 64 | 64 (≈ 45 µM) | > 64 | 37.7
13 | 800 | CC[C@H](C)[C@@H](NC(=O)[C@@H](NC(=O)[C@H](CCC(=O)O)NC(=O)[C@H](Cc1ccccc1)NC(=O)[C@@H](CCN)NC(=O)[C@H](CCN)NC(=O)[C@H](CCN)NC(=O)[C@@H](Cc1c[nH]c2ccccc12)NC(=O)[C@@H](CO)NC(=O)CNC(=O)[C@@H](CCN)NC(=O)[C@H](N)C(C)C)C(C)C)C(=O)N[C@@H](C)C(=O)O | > 64 | > 64 | 1.1 | > 170 |  |  |  |  |  |  |  | 
14 | 230 | CC[C@H](C)[C@@H](NC(=O)[C@@H](NC(=O)[C@H](CCC(=O)O)NC(=O)[C@H](Cc1ccccc1)NC(=O)[C@@H](CCN)NC(=O)[C@H](CCN)NC(=O)[C@H](CO)NC(=O)[C@@H](Cc1c[nH]c2ccccc12)NC(=O)[C@@H](CO)NC(=O)CNC(=O)[C@@H](CCN)NC(=O)[C@H](N)C(C)C)C(C)C)C(=O)O | > 64 | > 64 | 1 | > 170 |  |  |  |  |  |  |  | 
15 | 1170 | CC[C@H](C)[C@@H](NC(=O)[C@@H](NC(=O)[C@H](CCC(=O)O)NC(=O)[C@H](Cc1ccccc1)NC(=O)[C@@H](CN)NC(=O)[C@H](CCN)NC(=O)[C@H](CO)NC(=O)[C@@H](Cc1c[nH]c2ccccc12)NC(=O)[C@@H](CO)NC(=O)CNC(=O)[C@@H](CCN)NC(=O)[C@H](N)C(C)C)C(C)C)C(=O)N[C@@H](C)C(=O)O | > 64 | > 64 | 1.6 | > 170 |  |  |  |  |  |  |  | 
